{"source": "patent US5731357A", "about": "“Immunomodulating active substance” (priority 1996, dated 1998)", "key": {"[1]": {"tested_on": "antibody-forming cells in mouse spleen (sheep erythrocytes as antigen)", "assay": "Antibody-forming cell (AFC) count in mouse spleen, local hemolysis reaction (humoral immune response)", "assay_type": "in vivo", "details": "for AFC stimulation degree: C57B1/6; for AFC count per 10^6 nucleated spleen cells: C57B1/6 males 20-22 g; for AFC stimulating effect: 50.0 mg/kg, low responsive line mice"}, "[2]": {"tested_on": "hemagglutinin titers for sheep erythrocytes in mouse serum", "assay": "Hemagglutinin (HA) titer for sheep erythrocytes in mouse serum", "assay_type": "in vivo"}, "[3]": {"tested_on": "delayed skin reaction (DSR) to sheep erythrocytes", "assay": "Delayed skin reaction (DSR)", "assay_type": "in vivo, mouse", "details": "inosiplex 0.5, 5.0 and 50.0 mg/kg; mice of two lines; listed as In", "protocol": "Experimental animals were intraperitoneally administered doses of 10.0 and 100.0 mg/kg in 0.1 ml in parallel to antigen administration; similar doses were given per os for 5 days before antigen administration.\n(§1) In was dissolved in physiological solution and administered intraperitonerally at single doses together with antigen (sheep erytrcytes). Physiological solution was used as a control.\n(§2) 3. DSR deermination using intravenoous immunization of mice with sheep erythrocytes administered at a dose of 2×10^5 cells. A resolution dose (1×10^8 cells in 0.04 ml of physiological solution) was injected in a hind footpad on the 5th day following immunization. Local inflammatory reaction was accounted for 24 hours later by the difference of mass between experimental (Re) and control (Rc) footpads. Reaction index (RI) was calculated for each mouse using the following formula: [formula] 4. GVHR determination. GVHR was induced by subcutaneous administration of 2×10^6 lymph node cells of […] (CBA) into right hind footpads of line F1 (CBA×C57B1/6) mice. Syngeneic lymphocytes were administered into left footpads. Cell count was determined in 5 ml of homogenate of left (control) and right (experiment) lymph nodes."}, "[4]": {"tested_on": "graft-versus-host reaction (GVHR)", "assay": "Graft-versus-host reaction (GVHR)", "assay_type": "in vivo, mouse", "details": "inosiplex 50.0 mg/kg", "protocol": "as §1, §2"}, "peritoneal macrophages": {"tested_on": "peritoneal macrophages", "assay": "Phagocytic activity of peritoneal macrophages (opsonized sheep erythrocytes)", "assay_type": "in vivo, mouse", "details": "for Stimulation degree (phagocytosis completion index increase): F1 mice", "protocol": "5. Estimation of phagocytic activity of peritoneal macrophages in mice, using JgG-opsonized sheep erythrocytes as the phagocytosis target /10/. Macrophages were attracted by 4-percent hydrolyzed starch solution. On the 3rd or 4th day, 0.5 ml of 5-percent sheep erythrocyte suspension were administered intraperitoneally. Following 60 minutes, exudate was removed. Non phagocytic sheep erythrocytes were subjected to lysis. Cell suspension was washed out. The preparation stained per Romanovsky-Gimze was determined for phagocyting cell percentage. To determine phagocytic index (PI1), the number of sheep erythroccytes captured was calculated spectrophotometrically /11/ by hemoglobin concentration using a calibration curve. Phagocytic index (P12) was determined again following 3 hours of incubation at 37° C. Phagocytosis completion index (PCI) was calculatd using the following formula: [formula] […] Then, for 15 minutes blood was taken from orbital sinus (0.020 ml) every 3 minutes and introduced into 1 ml of 3-percent acetic acid. Blood taking completed, animals were killed and body weight, liver and spleen weight were measured. Optical density of hemolyzed blood determined spectrophometrically at 610 nm wavelenght, and the f (D) t curve was plotted. Points lg (0) (zero time) and lg(10) (on the curve) were located. Phagocytosys constant (K) was calculated using the following formula: [formula] and then true phagocytosis index (α) was calculated using the following formula: [formula] 7. Complement activity determination using the titration technique employing rabbit erythrocytes treated with hyperimmune antiserum of guinea pig /12/ for direct activation route and employing rabbit erythrocytes treated with potassium iodide solution /13/ for alternative activation route. Activity was expressed in units 50-percent lysis per ml of serum (CH50).\nThe effect of In given at doses of 0.5, 5.0 and 50.0 mg/kg on phagocytosis index was studied in hybrid line F1 (CBA×C57B1/6) mice, with he drug administered intraperitonreallly 30 minutes before injection of the phagocytosis target, i.e. sheep erythrocytes."}, "[5]": {"tested_on": "ink clearance, phagocytic activity in vivo", "assay": "Ink clearance (phagocytosis in vivo)", "parameters": "species or system mouse", "details": "In intraperitoneally 0.5, 5.0 and 50.0 mg/kg", "protocol": "5. Estimation of phagocytic activity of peritoneal macrophages in mice, using JgG-opsonized sheep erythrocytes as the phagocytosis target /10/. Macrophages were attracted by 4-percent hydrolyzed starch solution. On the 3rd or 4th day, 0.5 ml of 5-percent sheep erythrocyte suspension were administered intraperitoneally. Following 60 minutes, exudate was removed. Non phagocytic sheep erythrocytes were subjected to lysis. Cell suspension was washed out. The preparation stained per Romanovsky-Gimze was determined for phagocyting cell percentage. To determine phagocytic index (PI1), the number of sheep erythroccytes captured was calculated spectrophotometrically /11/ by hemoglobin concentration using a calibration curve. Phagocytic index (P12) was determined again following 3 hours of incubation at 37° C. Phagocytosis completion index (PCI) was calculatd using the following formula: [formula] […] Blood taking completed, animals were killed and body weight, liver and spleen weight were measured. Optical density of hemolyzed blood determined spectrophometrically at 610 nm wavelenght, and the f (D) t curve was plotted. […] Phagocytosys constant (K) was calculated using the following formula: [formula] and then true phagocytosis index (α) was calculated using the following formula: [formula] […]"}, "[6]": {"details": "third dose column (printed 5.0 mg/kg), 2 × 10^7 sheep erythrocytes"}}}
{"smiles": "CC(=O)Nc1ccc(C(=O)O)cc1.CC(=O)Nc1ccc(C(=O)O)cc1.CC(=O)Nc1ccc(C(=O)O)cc1.CC(O)CN(C)C.CC(O)CN(C)C.CC(O)CN(C)C.O=c1[nH]cnc2c1ncn2[C@@H]1O[C@H](CO)[C@@H](O)[C@H]1O", "note": "[Inosiplex]", "values": [{"measurement": "AFC stimulation degree", "setting": "[1]; 0.5 mg/kg, 10^8 sheep erythrocytes (optimum)", "value": 90, "unit": "%"}, {"measurement": "AFC count per 10^6 nucleated spleen cells", "setting": "[1]; 0.5 mg/kg, 2 × 10^7 sheep erythrocytes", "value": "52(63'44)"}, {"measurement": "AFC count per 10^6 nucleated spleen cells", "setting": "[1]; 0.5 mg/kg, 10^8 sheep erythrocytes, p < 0.05", "value": "158(186'134)"}, {"measurement": "AFC stimulation degree", "setting": "[1]; 5.0 mg/kg, 2 × 10^7 sheep erythrocytes (suboptimum)", "value": 38, "unit": "%"}, {"measurement": "AFC stimulation degree", "setting": "[1]; 5.0 mg/kg, 10^8 sheep erythrocytes (optimum)", "value": 82, "unit": "%"}, {"measurement": "AFC count per 10^6 nucleated spleen cells", "setting": "[1]; 5.0 mg/kg, 2 × 10^7 sheep erythrocytes", "value": "117(149'98)"}, {"measurement": "AFC count per 10^6 nucleated spleen cells", "setting": "[1]; 5.0 mg/kg, 10^8 sheep erythrocytes, p < 0.05", "value": "151(169'134)"}, {"measurement": "AFC stimulating effect", "setting": "[1]; optimum immunisation", "value": 139, "unit": "%"}, {"measurement": "AFC stimulating effect", "setting": "[1]; suboptimum immunisation", "value": 32, "unit": "%"}, {"measurement": "stimulation of humoral immune response", "setting": "[1]; 5.0 and 50.0 mg/kg, animals low responsive to antigen", "value": "1.3-1.8 fold"}, {"measurement": "antibody-forming cells in the spleen (in words)", "setting": "[1]; common to inosplex and Rp", "value": "Stimulation of forming antibody-forming cells in the spleen"}, {"measurement": "humoral immune reaction (in words)", "setting": "[1]; strong-replied animals, optimal dose of antigen", "value": "Suppress of humoral immune reaction"}, {"measurement": "AFC stimulation degree", "setting": "[1]; [6]", "value": 32, "unit": "%"}, {"measurement": "AFC stimulation degree", "setting": "[1]; third dose column (printed 5.0 mg/kg), 10^8 sheep erythrocytes", "value": 139, "unit": "%"}, {"measurement": "AFC count per 10^6 nucleated spleen cells", "setting": "[1]; [6]", "value": "112(141'89)"}, {"measurement": "AFC count per 10^6 nucleated spleen cells", "setting": "[1]; third dose column (printed 5.0 mg/kg), 10^8 sheep erythrocytes, p < 0.01", "value": "199(245'162)"}, {"measurement": "humoral immune reaction (in words)", "setting": "[1]; weak-replied animals, and strong-replied mice with suboptimum dose of antigen", "value": "Stimulation of humoral immune reaction"}, {"measurement": "HA titer, 14th day after immunisation", "setting": "[2]; 250.0 mg/kg, CBA males 20-22 g, n = 8, suboptimum sheep erythrocyte dose, P< 0.02", "value": 8.5, "unit": "log2"}, {"measurement": "stimulation of hemagglutinin production (fold)", "setting": "[2]; 250.0 mg/kg, line CBA", "value": "as much as two times"}, {"measurement": "stimulation of hemagglutinin production (log2 of hemagglutinin titer)", "setting": "[2]; 250.0 mg/kg, line CBA", "value": "1 log2 of hemagglutinin titer"}, {"measurement": "effect on hemagglutinin titer (in words)", "setting": "[2]; 0.5, 5.0 and 25.0 mg/kg, line CBA, 7th and 14th day, suboptimum immunisation", "value": "no stimulating effect"}, {"measurement": "DSR intensity (in words)", "setting": "[3]", "value": "no changes in the reaction intensity"}, {"measurement": "GVHR (in words)", "setting": "[4]", "value": "slight inhibitory effect"}, {"measurement": "Stimulation degree (phagocytosis completion index increase)", "setting": "peritoneal macrophages; 5.0 mg/kg, intraperitoneal", "value": 39, "unit": "%"}, {"measurement": "Stimulation degree (phagocytosis completion index increase)", "setting": "peritoneal macrophages; 50.0 mg/kg, intraperitoneal", "value": 76, "unit": "%"}, {"measurement": "phagocytosis and digesting ability of macrophages (in words)", "setting": "peritoneal macrophages; common to inosplex and Rp", "value": "Stimulation of phagocytosis and digesting ability of macrophages"}, {"measurement": "phagocytosis index (in words)", "setting": "peritoneal macrophages; inosiplex 0.5 mg/kg, F1, intraperitoneal", "value": "no stimulation effect"}, {"measurement": "stimulation of phagocytosis completion", "setting": "peritoneal macrophages; intraperitoneal 5.0 and 50.0 mg/kg", "value": "1.4-1.7 times"}, {"measurement": "blood clearence rate (in words)", "setting": "[5]", "value": "no effect on blood clearence rate"}, {"measurement": "capturing intensity of inert ink particles (in words)", "setting": "[5]", "value": "no changes in capturing intensity of inert ink particles"}]}
